Data reported in patent EP0140958B1, “ONCOLYTIC DRUG COMBINATIONS” (ELFORD, Howard L., priority 1983, dated 1984).
Counter-ions that a name gives are not always drawn.

Tests used:
[1] = tested on: L-1210 leukemia; assay: L-1210 leukemia transplanted tumor in mice, life span; format: in vivo; parameters: Mean Life Span: unit not given here; conditions: for Percent Increase In Life Span: over controls; for increase in life span: summary of Tables I and II, drug by itself, any dose level
Procedure: In this procedure, L-1210 leukemia was maintained by weekly passage of 10^5 L-1210 cells intraperitoneally into DBA/2 mice. Diluted ascitic fluid, 0.1 ml. (10^5 cells), was administered up to female B6D2F, mice weighing about 20 g. Drugs were administered intraperitoneally to the animals. Injections containing doxorubicin were given only on day 2 and the 3,4-dihydroxybenzohydroxamic acid was given on days 2, 3 and 4.

[2] = tested on: L1210 leukemia; conditions: from Elford et al. and van't Riet et al. publications; cited from earlier work

## O=C(NO)c1ccc(O)c(O)c1 [3,4-dihydroxybenzohydroxamic acid]
[1]; Table 1, 275 Mg./Kg. intraperitoneally, days 2, 3 and 4, four mice per group
  Mean Life Span: 12.75
[1]; Table 1, 275 Mg./Kg. intraperitoneally, days 2, 3 and 4
  Percent Increase In Life Span: 17%
[1]; Table 1, 275 Mg./Kg. intraperitoneally, days 2, 3 and 4, survivors calculated at day 60
  Percent Cures: 0%
[1]; Table 1, 430 Mg./Kg. intraperitoneally, days 2, 3 and 4, four mice per group
  Mean Life Span: 13.0
[1]; Table 1, 430 Mg./Kg. intraperitoneally, days 2, 3 and 4
  Percent Increase In Life Span: 19%
[1]; Table 1, 430 Mg./Kg. intraperitoneally, days 2, 3 and 4, survivors calculated at day 60
  Percent Cures: 0%
[1]; Table 1, 645 Mg./Kg. intraperitoneally, days 2, 3 and 4, four mice per group
  Mean Life Span: no better than control
[1]; Table 1, 645 Mg./Kg. intraperitoneally, days 2, 3 and 4, four mice per group, listed as 3,4-dihydroxy benzohydroxamic acid
  Mean Life Span: 11.0
[1]; Table 1, 645 Mg./Kg. intraperitoneally, days 2, 3 and 4
  Percent Increase In Life Span: 1%
[1]; Table 1, 645 Mg./Kg. intraperitoneally, days 2, 3 and 4, survivors calculated at day 60
  Percent Cures: 0%
[1]; Table II, 430 Mg./Kg. intraperitoneally, days 2, 3 and 4
  Percent Increase In Life Span: 32%
[1]; Table II, 430 Mg./Kg. intraperitoneally, days 2, 3 and 4, survivors calculated on day 35
  Percent Cures: 0%
[1]; Table II, 430 Mg./Kg. intraperitoneally, days 2, 3 and 4, three mice per group
  Mean Life Span: 12
[1]; Table II, 645 Mg./Kg. intraperitoneally, days 2, 3 and 4
  Percent Increase In Life Span: 49%
[1]; Table II, 645 Mg./Kg. intraperitoneally, days 2, 3 and 4, survivors calculated on day 35
  Percent Cures: 0%
[1]; Table II, 645 Mg./Kg. intraperitoneally, days 2, 3 and 4, three mice per group
  Mean Life Span: 13.6
[1]
  increase in life span: very little increase in life span
[2]
  activity against L1210 leukemia: the most active

## COc1cccc2c1C(=O)c1c(O)c3c(c(O)c1C2=O)C[C@@](O)(C(=O)CO)C[C@@H]3O[C@H]1C[C@H](N)[C@H](O)[C@H](C)O1 [Doxorubicin hydrochloride]
[1]; Table 1, 6 Mg./Kg. intraperitoneally, day 2, four mice per group
  Mean Life Span: 14.5
[1]; Table 1, 6 Mg./Kg. intraperitoneally, day 2
  Percent Increase In Life Span: 33%
[1]; Table 1, 6 Mg./Kg. intraperitoneally, day 2, survivors calculated at day 60
  Percent Cures: 0%
[1]; Table 1, 17 Mg./Kg. intraperitoneally, day 2, four mice per group
  Mean Life Span: 28.5
[1]; Table 1, 17 Mg./Kg. intraperitoneally, day 2
  Percent Increase In Life Span: 161%
[1]; Table 1, 17 Mg./Kg. intraperitoneally, day 2, survivors calculated at day 60
  Percent Cures: 0%
[1]; Table 1, 29 Mg./Kg. intraperitoneally, day 2, four mice per group
  Mean Life Span: 27.75
[1]; Table 1, 29 Mg./Kg. intraperitoneally, day 2
  Percent Increase In Life Span: 155%
[1]; Table 1, 29 Mg./Kg. intraperitoneally, day 2, survivors calculated at day 60
  Percent Cures: 0%
[1]; Table II, 6 Mg./Kg. intraperitoneally, day 2
  Percent Increase In Life Span: 46%
[1]; Table II, 6 Mg./Kg. intraperitoneally, day 2, survivors calculated on day 35
  Percent Cures: 0%
[1]; Table II, 6 Mg./Kg. intraperitoneally, day 2, three mice per group
  Mean Life Span: 13.3
[1]; Table II, 17 Mg./Kg. intraperitoneally, day 2
  Percent Increase In Life Span: 76%
[1]; Table II, 17 Mg./Kg. intraperitoneally, day 2, survivors calculated on day 35
  Percent Cures: 0%
[1]; Table II, 17 Mg./Kg. intraperitoneally, day 2, three mice per group
  Mean Life Span: 16
[1]; Table II, 29 Mg./Kg. intraperitoneally, day 2
  Percent Increase In Life Span: 189%
[1]; Table II, 29 Mg./Kg. intraperitoneally, day 2, survivors calculated on day 35
  Percent Cures: 33%
[1]; Table II, 29 Mg./Kg. intraperitoneally, day 2, three mice per group
  Mean Life Span: 26.3
[1]
  increase in life span: substantial increase in life span
[1]; summary of Tables, by itself, at the highest dose level tested
  survivor: one
